Assay results from patent US20050239656A1, “Pyridine compounds or salts thereof and herbicides containing the same” (priority 2002, published 2005).

Legend:
crabgrass [1] = assay: Test Example 2: soil surface treatment, upland pot test; type: in vivo, Digitaria sanguinalis L.; details: observed 20th to 28th day
In short: (§1)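 Visual growth-control ratings (0 = untreated, 100 = complete kill) were taken 20–28 days after soil surface application. The spray was made one day post-sowing in upland soil pots, using formulated compound diluted with water at 1,500 L/ha at a set active ingredient rate.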

japanese bulrush = assay: Test Example 3: paddy pot test, application under submerged conditions; type: in vivo, Scirpus juncoides; details: active ingredient 250 g/ha; submerged application at 0.5 leaf stage; visually observed 14 days after application; 0 = non-treated, 100 = complete kill
In short: (§2)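 Visual growth-control rating (0 = untreated, 100 = complete kill) 14 days after treatment. The formulated compound, as a diluted wettable powder or emulsifiable concentrate, went into 3–4 cm flood water at a predetermined active-ingredient dose once the weeds reached 0.5 leaf stage (wapato: primary leaf stage).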

soybean [2] = assay: Test Example 2: soil surface treatment, upland pot test; type: in vivo, Glycine max Merr.; details: observed 20th to 28th day
In short: as §1

velvetleaf [3] = assay: as above; type: in vivo, Abutilon theophrasti MEDIC.; details: observed 20th to 28th day
In short: as §1

barnyardgrass [4] = assay: Test Example 3: paddy pot test, application under submerged conditions; type: in vivo, Echinochloa crus-galli L.; details: active ingredient 250 g/ha; submerged application at 0.5 leaf stage; visually observed 14 days after application; 0 = non-treated, 100 = complete kill
In short: as §2

rice [5] = assay: Test Example 2: soil surface treatment, upland pot test; type: in vivo, Oryza sativa L.; details: observed 20th to 28th day
In short: as §1

prickly sida [6] = assay: as above; type: in vivo, Sida spinosa L.; details: observed 20th to 28th day
In short: as §1

redroot pigweed [7] = assay: as above; type: in vivo, Amaranthus retroflexus L.; details: observed 20th to 28th day
In short: as §1

rice (var. Nihonbare) = assay: Test Example 3: paddy pot test, transplanted rice; type: in vivo, Oryza sativa L.; details: active ingredient 250 g/ha, applied 4th day after transplantation, visually observed 21st day after application, 0 = non-treated, 100 = complete kill
In short: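 Rice (var. Nihonbare) at 2 leaf stage transplanted 3 cm deep into puddled paddy soil under 3–4 cm flooding; on day 4 after transplanting, diluted wettable powder or emulsifiable concentrate applied by pipette under submerged conditions at a set active-ingredient dose. Growth scored visually 21 days after application, 0 (untreated) to 100 (complete kill) %.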

corn [8] = assay: Test Example 2: soil surface treatment, upland pot test; type: in vivo, Zea mays L.; details: observed 20th to 28th day
In short: as §1

wheat = assay: as above; type: in vivo, Triticum spp.; details: active ingredient 250 g/ha, observed 20th to 28th day
Excerpt: Upland field soil was put into a 1/170,000 ha pot, and seed of various plants (barnyardgrass, crabgrass, green foxtail, redroot pigweed, prickly sida, velvetleaf, rice, wheat, corn, soybean) were sown. On the 1st day after the sowing, a wettable powder or emulsifiable concentrate having the compound of the present invention formulated in accordance with a usual formulation method, was weighed so that the active ingredient would be a predetermined amount, and diluted with water in an amount of 1,500 L/ha. The herbicide thus adjusted was applied by a small size sprayer for soil surface treatment. On the 20th to 28th days after the application of the herbicide, the growth of the respective plants was visually observed, and the herbicidal effects were evaluated by the growth controlling degrees (%) ranging from 0 (equivalent to the non-treated plot) to 100 (complete kill), whereby the results shown in Table 4, were obtained.

barnyardgrass [9] = assay: as above; type: in vivo, Echinochloa crus-galli L.; details: observed 20th to 28th day
In short: as §1

green foxtail [10] = assay: as above; type: in vivo, Setaria viridis L.; details: observed 20th to 28th day
In short: as §1

green foxtail [11] = assay: Test Example 1: foliage treatment, upland pot test; type: in vivo, Setaria viridis L.; details: active ingredient 500 g/ha, observed 18th to 23rd day, 0 = non-treated, 100 = complete kill
velvetleaf [12] = assay: Test Example 1: foliage treatment, upland pot test; type: in vivo, Abutilon theophrasti MEDIC.; details: active ingredient 500 g/ha, observed 18th to 23rd day, 0 = non-treated, 100 = complete kill
corn [13] = assay: Test Example 1: foliage treatment, upland pot test; type: in vivo, Zea mays L.; details: crop, active ingredient 500 g/ha, observed 18th to 23rd day, 0 = non-treated, 100 = complete kill
In short: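 In this upland pot foliage test, corn plants at 2.1 to 3.2 leaf stages were sprayed by a small size sprayer. The spray was a conventionally formulated wettable powder or emulsifiable concentrate weighed to a set active ingredient amount, diluted in water at 500 L/ha, plus 0.1% (v/v) agricultural spreader. Visual assessment on days 18 to 23 gave growth controlling degree (%), where 0 equals untreated and 100 means complete kill.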

crabgrass [14] = assay: Test Example 1: foliage treatment, upland pot test; type: in vivo, Digitaria sanguinalis L.; details: active ingredient 500 g/ha, observed 18th to 23rd day, 0 = non-treated, 100 = complete kill
rice [15] = assay: Test Example 1: foliage treatment, upland pot test; type: in vivo, Oryza sativa L.; details: crop, active ingredient 500 g/ha, observed 18th to 23rd day, 0 = non-treated, 100 = complete kill
In short: (§3)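 Visual growth-control score, 0% (like untreated) to 100% (complete kill), taken on days 18 to 23 after foliar spraying. Leaf stage at treatment: barnyardgrass 1.3–2.8, rice 1.2–2.6, wheat 1.3–2.4, soybean 0.1–0.4. Spray: wettable powder or EC in 500 L/ha water, 0.1% v/v spreader added.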

prickly sida [16] = assay: Test Example 1: foliage treatment, upland pot test; type: in vivo, Sida spinosa L.; details: active ingredient 500 g/ha, observed 18th to 23rd day, 0 = non-treated, 100 = complete kill
redroot pigweed [17] = assay: Test Example 1: foliage treatment, upland pot test; type: in vivo, Amaranthus retroflexus L.; details: active ingredient 500 g/ha, observed 18th to 23rd day, 0 = non-treated, 100 = complete kill
soybean [18] = assay: Test Example 1: foliage treatment, upland pot test; type: in vivo, Glycine max Merr.; details: crop, active ingredient 500 g/ha, observed 18th to 23rd day, 0 = non-treated, 100 = complete kill
In short: as §3

japanese ribbon wapato = assay: Test Example 3: paddy pot test, application under submerged conditions; type: in vivo, Sagittaria pygniaea; details: active ingredient 250 g/ha; submerged application at primary leaf stage; visually observed 14 days after application; 0 = non-treated, 100 = complete kill
In short: as §2

barnyardgrass [19] = assay: Test Example 1: foliage treatment, upland pot test; type: in vivo, Echinochloa crus-galli L.; details: active ingredient 500 g/ha, observed 18th to 23rd day, 0 = non-treated, 100 = complete kill
In short: as §3

Row | SMILES | Growth controlling degree (%) Crabgrass (crabgrass [1]; active ingredient 250 g/ha) [%] | Growth controlling degree (%) Japanese bulrush (japanese bulrush) [%] | Growth controlling degree (%) Soyabean (soybean [2]; active ingredient 250 g/ha) [%] | Growth controlling degree (%) Velvetleaf (velvetleaf [3]; active ingredient 250 g/ha) [%] | Growth controlling degree (%) Barnyardgrass (barnyardgrass [4]) [%] | Growth controlling degree (%) Rice (rice [5]; active ingredient 250 g/ha) [%] | Growth controlling degree (%) Prickly sida (prickly sida [6]; active ingredient 250 g/ha) [%] | Growth controlling degree (%) Redroot pigweed (redroot pigweed [7]; active ingredient 250 g/ha) [%] | Growth controlling degree (%) Rice (rice (var. Nihonbare)) [%] | Growth controlling degree (%) Corn (corn [8]; active ingredient 250 g/ha) [%] | Growth controlling degree (%) wheat (wheat) [%] | Growth controlling degree (%) Barnyardgrass (barnyardgrass [9]; active ingredient 250 g/ha) [%] | Growth controlling degree (%) Green foxtail (green foxtail [10]; active ingredient 250 g/ha) [%] | other results
1 | CCC(Br)C(=O)N(C)C(c1cnccc1C(F)(F)F)C(C)C (centres unmarked) [Compound I-202] | 100 | 98 | 35 | 40 | 98 | 60 | 70 | 80 | 10 | 50 | 40 | 100 | 95 | –
2 | CC(C)C(c1cnccc1C(F)(F)F)N(C)C(=O)CCBr (centres unmarked) [I-201] | 100 | 98 | 40 | 40 | 98 | 70 | 60 | 70 | 10 | 40 | 60 | 100 | 100 | –
3 | CC(C)C(c1cnccc1C(F)(F)F)N(C)C(=O)C(F)(F)F (centres unmarked) [Compound I-209] | 98 | 100 | 50 | 60 | 98 | 70 | 70 | 60 | 35 | 50 | 70 | 100 | 100 | –
4 | CCCOC(=O)N(C)C(c1cnccc1C(F)(F)F)C(C)C (centres unmarked) [I-203] | 100 | 95 | 30 | 30 | 100 | 60 | 60 | 80 | 10 | 40 | 30 | 100 | 98 | –
5 | CC(C)C(c1cnccc1C(F)(F)F)N(C)C(=O)Cc1ccc(F)c(F)c1 (centres unmarked) [I-60] | – | 70 | – | – | 100 | – | – | – | 30 | – | – | – | – | Growth controlling degree (%) Green foxtail (green foxtail [11]): 70%; Growth controlling degree (%) Velvetleaf (velvetleaf [12]): 90%; Growth controlling degree (%) Corn (corn [13]): 70%; Growth controlling degree (%) Crabgrass (crabgrass [1]; active ingredient 500 g/ha): 100%; Growth controlling degree (%) Soyabean (soybean [2]; active ingredient 500 g/ha): 10%; Growth controlling degree (%) Velvetleaf (velvetleaf [3]; active ingredient 500 g/ha): 70%; Growth controlling degree (%) Rice (rice [5]; active ingredient 500 g/ha): 20%; Growth controlling degree (%) Prickly sida (prickly sida [6]; active ingredient 500 g/ha): 98%; Growth controlling degree (%) Crabgrass (crabgrass [14]): 80%; Growth controlling degree (%) Redroot pigweed (redroot pigweed [7]; active ingredient 500 g/ha): 80%; Growth controlling degree (%) Rice (rice [15]): 50%; Growth controlling degree (%) Prickly sida (prickly sida [16]): 70%; Growth controlling degree (%) Redroot pigweed (redroot pigweed [17]): 60%; Growth controlling degree (%) Corn (corn [8]; active ingredient 500 g/ha): 10%; Growth controlling degree (%) Soybean (soybean [18]): 35%; Growth controlling degree (%) Barnyardgrass (barnyardgrass [9]; active ingredient 500 g/ha): 98%; Growth controlling degree (%) Japanese ribbon wapato (japanese ribbon wapato): 95%; Growth controlling degree (%) Barnyardgrass (barnyardgrass [19]): 60%; Growth controlling degree (%) Green foxtail (green foxtail [10]; active ingredient 500 g/ha): 98%
